Measured values reported in ChEMBL document CHEMBL5331122, “Structure-Activity Relationship Study of Antimicrobial Peptide PE2 Delivered Novel Linear Derivatives with Potential of Eradicating Biofilms and Low Incidence of Drug Resistance” (J Med Chem, 2023).
≈ marks a conversion by molar mass, not a printed value.

Columns and labels:
Erythrocyte = assay: Hemolytic activity in mouse red blood cell assessed as hemolysis incubated for 1 hr; format: toxicity, cell-based; details: dose 4-256 µg/ml
Enterococcus faecalis = assay: Antibacterial activity against Enterococcus faecalis ATCC 29212 assessed as bacterial growth inhibition incubated for 18 hrs by broth microdilution method; format: functional
Pseudomonas aeruginosa = assay: Antibacterial activity against Pseudomonas aeruginosa ATCC 27853 assessed as bacterial growth inhibition incubated for 18 hrs by broth microdilution method; format: functional
Klebsiella pneumoniae = assay: Antibacterial activity against Klebsiella pneumoniae ATCC 700603 assessed as bacterial growth inhibition incubated for 18 hrs by broth microdilution method; format: functional
Staphylococcus aureus = assay: Antibacterial activity against Staphylococcus aureus ATCC 25923 assessed as bacterial growth inhibition incubated for 18 hrs by broth microdilution method; format: functional
Escherichia coli = assay: Antibacterial activity against Escherichia coli ATCC 25922 assessed as bacterial growth inhibition incubated for 18 hrs by broth microdilution method; format: functional
Bacillus subtilis = assay: Antibacterial activity against Bacillus subtilis ATCC 23857 assessed as bacterial growth inhibition incubated for 18 hrs by broth microdilution method; format: functional

Structure (SMILES) | MIC (Enterococcus faecalis) [µg/mL] | MIC (Pseudomonas aeruginosa) [µg/mL] | MIC (Klebsiella pneumoniae) [µg/mL] | MIC (Staphylococcus aureus) [µg/mL] | MIC (Escherichia coli) [µg/mL] | MIC (Bacillus subtilis) [µg/mL] | HC10 (Erythrocyte) [µg/mL]
CCCCCCCCCCCC(=O)N[C@@H](CCN)C(=O)N[C@H](C(=O)N[C@@H](CCN)C(=O)N[C@H](Cc1ccccc1)C(=O)N[C@@H](CC(C)C)C(=O)N[C@@H](CCN)C(=O)N[C@@H](C(=O)N[C@@H](CC(C)C)C(=O)N[C@H](C(N)=O)[C@@H](C)O)C(C)C)[C@@H](C)CC | 4 (≈ 3.37 µM) | 8 (≈ 6.74 µM) | 8 (≈ 6.74 µM) | 16 (≈ 13.5 µM) | 4 (≈ 3.37 µM) | 8 (≈ 6.74 µM) | 8
CCCCCCCCCCCCCC(=O)N[C@@H](CCN)C(=O)N[C@H](C(=O)N[C@@H](CCN)C(=O)N[C@H](Cc1ccccc1)C(=O)N[C@@H](CC(C)C)C(=O)N[C@@H](CCN)C(=O)N[C@@H](C(=O)N[C@@H](CC(C)C)C(=O)N[C@H](C(N)=O)[C@@H](C)O)C(C)C)[C@@H](C)CC | 16 (≈ 13.2 µM) | 32 (≈ 26.3 µM) | > 128 | 32 (≈ 26.3 µM) | 128 (≈ 105 µM) | 16 (≈ 13.2 µM) | 32
NC[C@H]1O[C@H](O[C@H]2[C@H](O)[C@@H](O[C@H]3O[C@H](CO)[C@@H](O)[C@H](N)[C@H]3O)[C@H](N)C[C@@H]2N)[C@H](O)[C@@H](O)[C@@H]1O [KANAMYCIN] | 16 (≈ 33 µM) | > 128 | 32 (≈ 66 µM) | < 1 | 4 (≈ 8.26 µM) | < 1 | –
CC[C@H](C)[C@H](NC(=O)[C@@H](N)CCN)C(=O)N[C@@H](CCN)C(=O)N[C@H](Cc1ccccc1)C(=O)N[C@@H](CC(C)C)C(=O)N[C@@H](CCN)C(=O)N[C@@H](C(=O)N[C@@H](CC(C)C)C(=O)N[C@H](C(N)=O)[C@@H](C)O)C(C)C | > 128 | 32 (≈ 31.9 µM) | > 128 | > 128 | 128 (≈ 127 µM) | 32 (≈ 31.9 µM) | 512
CN[C@H](CC(C)C)C(=O)N[C@H]1C(=O)N[C@@H](CC(N)=O)C(=O)N[C@H]2C(=O)N[C@H]3C(=O)N[C@H](C(=O)N[C@H](C(=O)O)c4cc(O)cc(O)c4-c4cc3ccc4O)[C@H](O)c3ccc(c(Cl)c3)Oc3cc2cc(c3O[C@@H]2O[C@H](CO)[C@@H](O)[C@H](O)[C@H]2O[C@H]2C[C@](C)(N)[C@H](O)[C@H](C)O2)Oc2ccc(cc2Cl)[C@H]1O [VANCOMYCIN] | – | > 128 | > 128 | – | 128 (≈ 88.3 µM) | < 1 | –

Now from value to compound, other results behind:

MIC (Enterococcus faecalis) [µg/mL] | MIC (Pseudomonas aeruginosa) [µg/mL] | MIC (Klebsiella pneumoniae) [µg/mL] | MIC (Staphylococcus aureus) [µg/mL] | MIC (Escherichia coli) [µg/mL] | MIC (Bacillus subtilis) [µg/mL] | Structure (SMILES) | HC10 (Erythrocyte) [µg/mL]
8 (≈ 6.99 µM) | 8 (≈ 6.99 µM) | 8 (≈ 6.99 µM) | 8 (≈ 6.99 µM) | 4 (≈ 3.49 µM) | 4 (≈ 3.49 µM) | CCCCCCCCC(=O)N[C@@H](CCN)C(=O)N[C@H](C(=O)N[C@@H](CCN)C(=O)N[C@H](Cc1ccccc1)C(=O)N[C@@H](CC(C)C)C(=O)N[C@@H](CCN)C(=O)N[C@@H](C(=O)N[C@@H](CC(C)C)C(=O)N[C@H](C(N)=O)[C@@H](C)O)C(C)C)[C@@H](C)CC | 64
64 (≈ 57.3 µM) | 16 (≈ 14.3 µM) | 8 (≈ 7.17 µM) | 16 (≈ 14.3 µM) | 4 (≈ 3.58 µM) | 4 (≈ 3.58 µM) | CCCCCCC(=O)N[C@@H](CCN)C(=O)N[C@H](C(=O)N[C@@H](CCN)C(=O)N[C@H](Cc1ccccc1)C(=O)N[C@@H](CC(C)C)C(=O)N[C@@H](CCN)C(=O)N[C@@H](C(=O)N[C@@H](CC(C)C)C(=O)N[C@H](C(N)=O)[C@@H](C)O)C(C)C)[C@@H](C)CC | 256
16 (≈ 14.2 µM) | 8 (≈ 7.08 µM) | 8 (≈ 7.08 µM) | 8 (≈ 7.08 µM) | 4 (≈ 3.54 µM) | 4 (≈ 3.54 µM) | CCCCCCCC(=O)N[C@@H](CCN)C(=O)N[C@H](C(=O)N[C@@H](CCN)C(=O)N[C@H](Cc1ccccc1)C(=O)N[C@@H](CC(C)C)C(=O)N[C@@H](CCN)C(=O)N[C@@H](C(=O)N[C@@H](CC(C)C)C(=O)N[C@H](C(N)=O)[C@@H](C)O)C(C)C)[C@@H](C)CC | 128
